Assay results published in patent US12421212B2, “Substituted benzenecarboxamides as IL-17A modulators” (DiCE Alpha, Inc., priority 2019, dated 2025).

Biological target: T1, IL-17A/A (Homo sapiens, UniProt Q16552)
T1 construct: purchased Genscript Z03228
T1 sequence (Q16552 24-155): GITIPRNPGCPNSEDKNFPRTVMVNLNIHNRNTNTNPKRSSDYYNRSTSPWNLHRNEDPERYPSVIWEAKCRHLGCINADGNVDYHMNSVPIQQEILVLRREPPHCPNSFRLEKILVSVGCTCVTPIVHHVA
Assay: IL-17A/A HEK-Blue Cell Assay
Format: cell-based
Settings: HEK-Blue IL-17A reporter cell line, SEAP readout at A630, 20 hours incubation with IL-17A/A; top concentration 10 uM, 1 uM or 0.3 uM; read-out: IL-17A/A inhibition (pIC50) (converted)

IC50 [nM]	Compound
10 to 100	CCn1nccc1C(=O)N[C@H](C(=O)Nc1ccc(C[C@@H](NC(=O)c2ccnn2C2CCN(C)CC2)C(=O)N2CCN(C)CC2)cc1F)C1CCCCC1 [Compound 321]
10 to 100	CCn1nccc1C(=O)N[C@H](C(=O)Nc1ccc(C[C@@H](NC(=O)c2cnns2)C(=O)N2CCN(C)CC2)cc1F)C1CCCCC1 [Compound 322]
10 to 100	COc1ccc(C(F)(F)C(=O)N[C@H](C(=O)Nc2ccc(C[C@@H](NC(=O)c3cnns3)C(=O)N3CCN(C)CC3)cc2F)C2CCCCC2)cn1 [Compound 323]
10 to 100	COc1cncc(C(F)(F)C(=O)N[C@H](C(=O)Nc2ccc(C[C@@H](NC(=O)c3cnns3)C(=O)N3CCN(C)CC3)cc2F)C2CCCCC2)c1 [Compound 324]
10 to 100	CCC(=O)N[C@H](Cc1ccc(NC(=O)[C@@H](NC(=O)c2ccnn2CC)C2CCCCC2)c(F)c1)C(=O)N1CCN(Cc2ccccc2)CC1 [Compound 325]
10 to 100	CCn1nccc1C(=O)N[C@H](C(=O)Nc1ccc([C@H](C)[C@@H](NC(=O)C2(F)CC2)C(=O)N2CCN(C)CC2)cc1F)C1CCCCCC1 [Compound 326]
10 to 100	CCn1nccc1C(=O)N[C@H](C(=O)Nc1ccc([C@H](C)[C@@H](NC(=O)NC(C)C)C(=O)N2CCN(C)CC2)cc1F)C1CCCCCC1 [Compound 327]
10 to 100	CC(C)NC(=O)N[C@@H](C(=O)N1CCN(C)CC1)[C@@H](C)c1ccc(NC(=O)[C@@H](NC(=O)c2ccnn2C(C)C)C2CCCCCC2)c(F)c1 [Compound 328]
< 10	CC(C)n1nccc1C(=O)N[C@H](C(=O)Nc1ccc([C@H](C)[C@@H](NC(=O)c2ccnn2CC2CC2)C(=O)N2CCN(C)CC2)cc1F)[C@H]1CC[C@H](C)CC1 [Compound 329]
< 10	CC(C)n1nccc1C(=O)N[C@@H](C(=O)N1CCN(C)CC1)[C@@H](C)c1ccc(NC(=O)[C@@H](NC(=O)c2ccnn2C(C)C)[C@H]2CC[C@H](C)CC2)c(F)c1 [Compound 330]
< 10	COc1ccc(C(F)(F)C(=O)N[C@H](C(=O)Nc2ccc([C@H](C)[C@@H](NC(=O)c3cnns3)C(=O)N3CCN(C)CC3)cc2F)C2CCCCCC2)cn1 [Compound 331]
< 10	CC(C)n1nccc1C(=O)N[C@H](C(=O)Nc1ccc([C@H](C)[C@@H](NC(=O)c2cnns2)C(=O)N2CCN(C)CC2)cc1F)C1CCCCCC1 [Compound 332]
< 10	CC(C)n1nccc1C(=O)N[C@H](C(=O)Nc1ccc([C@H](C)[C@@H](NC(=O)c2cnns2)C(=O)N2CCN(C)CC2)cc1F)[C@H]1CC[C@H](C)CC1 [Compound 333]
< 10	C[C@@H](c1ccc(NC(=O)[C@@H](NC(=O)C(F)(F)c2cncc(C#N)c2)C2CCCCCC2)c(F)c1)[C@@H](NC(=O)c1cnns1)C(=O)N1CCN(C)CC1 [Compound 335]
< 10	CC1CCC(C(NC(=O)C(F)(F)c2cccc(C#N)c2)C(=O)Nc2ccc(C(C)C(NC(=O)c3cnns3)C(=O)N3CCN(C)CC3)cc2F)CC1 (centres unmarked) [Compound 336]
< 10	CCn1nccc1C(=O)N[C@H](C(=O)Nc1ccc([C@H](C)[C@@H](NC(=O)c2cnns2)C(=O)N2CCN(C)CC2)cc1F)C1CCCCCC1 [Compound 337]
< 10	CCn1nccc1C(=O)N[C@H](C(=O)Nc1ccc([C@H](C)[C@@H](NC(=O)NC2CC2)C(=O)N2CCN(C)CC2)cc1F)C1CCCCCC1 [Compound 338]
< 10	CC(C)n1nccc1C(=O)N[C@H](C(=O)Nc1ccc([C@H](C)[C@@H](NC(=O)NC2CC2)C(=O)N2CCN(C)CC2)cc1F)C1CCCCCC1 [Compound 339]
< 10	CCn1nccc1C(=O)N[C@H](C(=O)Nc1ccc([C@H](C)[C@@H](NC(=O)CC2CC2)C(=O)N2CCN(C)CC2)cc1F)C1CCCCCC1 [Compound 340]
10 to 100	CCC(=O)N[C@@H](C(=O)N1CCN(Cc2ccccn2)CC1)[C@@H](C)c1ccc(NC(=O)[C@@H](NC(=O)c2ccnn2CC)[C@H]2CC[C@H](C)CC2)c(F)c1 [Compound 341]
10 to 100	CCC(=O)N[C@@H](C(=O)N1CCOCC1)[C@@H](C)c1ccc(NC(=O)[C@@H](NC(=O)c2ccnn2CC)[C@H]2CC[C@H](C)CC2)c(F)c1 [Compound 342]
10 to 100	CCC(=O)N[C@@H](C(=O)N1CCC(C)(O)CC1)[C@@H](C)c1ccc(NC(=O)[C@@H](NC(=O)c2ccnn2CC)[C@H]2CC[C@H](C)CC2)c(F)c1 [Compound 343]
10 to 100	CCC(=O)N[C@@H](C(=O)N[C@@H](C)C1CC1)[C@@H](C)c1ccc(NC(=O)[C@@H](NC(=O)c2ccnn2CC)[C@H]2CC[C@H](C)CC2)c(F)c1 [Compound 344]
10 to 100	CCC(=O)N[C@@H](C(=O)NCC1CCC1)[C@@H](C)c1ccc(NC(=O)[C@@H](NC(=O)c2ccnn2CC)[C@H]2CC[C@H](C)CC2)c(F)c1 [Compound 345]
10 to 100	CCC(=O)N[C@@H](C(=O)NCC1(C)CC1)[C@@H](C)c1ccc(NC(=O)[C@@H](NC(=O)c2ccnn2CC)[C@H]2CC[C@H](C)CC2)c(F)c1 [Compound 346]

IC50 [nM]	Compound
< 10	CCC(=O)N[C@@H](C(=O)N1CCN(Cc2ccccn2)CC1)[C@@H](C)c1ccc(NC(=O)[C@@H](NC(=O)c2ccnn2CC)C2CCCCCC2)c(F)c1 [Compound 348]
< 10	CCC(=O)N[C@@H](C(=O)N1CCOCC1)[C@@H](C)c1ccc(NC(=O)[C@@H](NC(=O)C(F)(F)c2cccc(C#N)c2)C2CCCCCC2)c(F)c1 [Compound 349]
< 10	CCC(=O)N[C@@H](C(=O)N1CCC(C)(O)CC1)[C@@H](C)c1ccc(NC(=O)[C@@H](NC(=O)c2ccnn2CC)C2CCCCCC2)c(F)c1 [Compound 350]
10 to 100	CCC(=O)N[C@@H](C(=O)N1CCOCC1)[C@@H](C)c1ccc(NC(=O)[C@@H](NC(=O)c2ccnn2CC)C2CCCCCC2)c(F)c1 [Compound 351]
10 to 100	CCC(=O)N[C@@H](C(=O)N1CCOCC1)[C@@H](C)c1ccc(NC(=O)[C@@H](NC(=O)C(F)(F)c2cccc(C#N)c2)C2CCCCC2)c(F)c1 [Compound 352]
10 to 100	CCC(=O)N[C@@H](C(=O)N1CCS(=O)(=O)CC1)[C@@H](C)c1ccc(NC(=O)[C@@H](NC(=O)c2ccnn2CC)C2CCCCCC2)c(F)c1 [Compound 353]
< 10	CCC(=O)N[C@@H](C(=O)N1CCS(=O)(=O)CC1)[C@@H](C)c1ccc(NC(=O)[C@@H](NC(=O)C(F)(F)c2cccc(C#N)c2)C2CCCCCC2)c(F)c1 [Compound 354]
< 10	CCC(=O)N[C@@H](C(=O)N1CCC(C)(O)CC1)[C@@H](C)c1ccc(NC(=O)[C@@H](NC(=O)C(F)(F)c2cccc(C#N)c2)C2CCCCCC2)c(F)c1 [Compound 355]
10 to 100	CCC(=O)N[C@@H](C(=O)N1CC(N(C)C)C1)[C@@H](C)c1ccc(NC(=O)[C@@H](NC(=O)c2ccnn2CC)C2CCCCCC2)c(F)c1 [Compound 356]
< 10	CCC(=O)N[C@@H](C(=O)N1CCC(C)(O)CC1)[C@@H](C)c1ccc(NC(=O)[C@@H](NC(=O)c2conc2CC)C2CCCCCC2)c(F)c1 [Compound 357]
10 to 100	CCC(=O)N[C@@H](C(=O)N1CCN(CCOC)CC1)[C@@H](C)c1ccc(NC(=O)[C@@H](NC(=O)c2ccnn2CC)C2CCCCC2)c(F)c1 [Compound 358]
10 to 100	CCC(=O)N[C@@H](C(=O)N1CCOCC1)[C@@H](C)c1ccc(NC(=O)[C@@H](NC(=O)c2ccnn2CC)C2CCCCC2)c(F)c1 [Compound 359]
10 to 100	CCC(=O)N[C@@H](C(=O)NC1CCOCC1)[C@@H](C)c1ccc(NC(=O)[C@@H](NC(=O)c2ccnn2CC)C2CCCCC2)c(F)c1 [Compound 360]
10 to 100	CCC(=O)N[C@@H](C(=O)N1CCS(=O)(=O)CC1)[C@@H](C)c1ccc(NC(=O)[C@@H](NC(=O)c2ccnn2CC)C2CCCCC2)c(F)c1 [Compound 361]
10 to 100	CCC(=O)N[C@@H](C(=O)N1CCN(C(C)C)CC1)[C@@H](C)c1ccc(NC(=O)[C@@H](NC(=O)c2ccnn2CC)C2CCCCC2)c(F)c1 [Compound 362]
< 10	CCC(=O)N[C@@H](C(=O)N1CCN(Cc2ccccn2)CC1)[C@@H](C)c1ccc(NC(=O)[C@@H](NC(=O)C(F)(F)c2cccc(C#N)c2)C2CCCCC2)c(F)c1 [Compound 363]
< 10	CCC(=O)N[C@@H](C(=O)N1CCC(C)(O)CC1)[C@@H](C)c1ccc(NC(=O)[C@@H](NC(=O)C(F)(F)c2cccc(C#N)c2)C2CCCCC2)c(F)c1 [Compound 364]
10 to 100	CCC(=O)N[C@@H](C(=O)N1CCS(=O)(=O)CC1)[C@@H](C)c1ccc(NC(=O)[C@@H](NC(=O)C(F)(F)c2cccc(C#N)c2)C2CCCCC2)c(F)c1 [Compound 365]
< 10	CCC(=O)N[C@@H](C(=O)N1CCN(Cc2ccccc2)CC1)[C@@H](C)c1ccc(NC(=O)[C@@H](NC(=O)c2ccnn2CC)C2CCCCC2)c(F)c1 [Compound 366]
10 to 100	CCC(=O)NC(C(=O)N1CCN(Cc2ccccc2)CC1)[C@@H](C)c1ccc(NC(=O)[C@@H](NC(=O)c2ccnn2CC)[C@H]2CC[C@H](C)CC2)c(F)c1 (some centres unmarked) [Compound 367]
10 to 100	CCC(=O)N[C@@H](C(=O)N1CCC(F)(F)CC1)[C@@H](C)c1ccc(NC(=O)[C@@H](NC(=O)c2ccnn2CC)[C@H]2CC[C@H](C)CC2)c(F)c1 [Compound 369]
10 to 100	CCC(=O)N[C@@H](C(=O)N1CCC(C)CC1)[C@@H](C)c1ccc(NC(=O)[C@@H](NC(=O)c2ccnn2CC)[C@H]2CC[C@H](C)CC2)c(F)c1 [Compound 370]
10 to 100	CCC(=O)N[C@@H](C(=O)N1CCSCC1)[C@@H](C)c1ccc(NC(=O)[C@@H](NC(=O)c2ccnn2CC)[C@H]2CC[C@H](C)CC2)c(F)c1 [Compound 371]
10 to 100	CCC(=O)N[C@@H](C(=O)N1CCC(Oc2ccccc2)CC1)[C@@H](C)c1ccc(NC(=O)[C@@H](NC(=O)c2ccnn2CC)[C@H]2CC[C@H](C)CC2)c(F)c1 [Compound 372]
10 to 100	CCC(=O)N[C@@H](C(=O)N1CC2(C1)CC(F)(F)C2)[C@@H](C)c1ccc(NC(=O)[C@@H](NC(=O)c2ccnn2CC)[C@H]2CC[C@H](C)CC2)c(F)c1 [Compound 373]
